Series [1] addresses T1, TEC kinase (Homo sapiens, UniProt P42680).
T1 construct: endogenous in cells; host or cells: K562
T1 sequence (P42680 1-631): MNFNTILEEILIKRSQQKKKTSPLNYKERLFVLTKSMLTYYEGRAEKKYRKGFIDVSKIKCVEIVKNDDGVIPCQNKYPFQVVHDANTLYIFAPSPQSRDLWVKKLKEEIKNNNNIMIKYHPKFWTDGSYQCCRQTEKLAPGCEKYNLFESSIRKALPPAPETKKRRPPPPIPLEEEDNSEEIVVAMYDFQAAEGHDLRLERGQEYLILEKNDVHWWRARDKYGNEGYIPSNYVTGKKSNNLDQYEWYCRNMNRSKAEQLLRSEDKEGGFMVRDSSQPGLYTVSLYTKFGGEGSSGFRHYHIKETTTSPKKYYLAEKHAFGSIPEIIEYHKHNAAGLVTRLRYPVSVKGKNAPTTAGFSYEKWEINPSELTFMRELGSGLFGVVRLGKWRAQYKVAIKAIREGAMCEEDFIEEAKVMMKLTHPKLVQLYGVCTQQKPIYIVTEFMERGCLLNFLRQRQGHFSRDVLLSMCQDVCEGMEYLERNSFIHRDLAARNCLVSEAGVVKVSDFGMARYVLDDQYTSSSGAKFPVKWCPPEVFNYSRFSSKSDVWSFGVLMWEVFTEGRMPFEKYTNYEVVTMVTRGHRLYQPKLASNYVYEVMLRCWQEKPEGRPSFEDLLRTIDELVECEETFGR
The series is described as follows: TEC kinase degradation in K562 cells (western blot). The series is classed as cell-based. To be noted: FIGS. 13A-13D; for effects on TEC kinase levels: four hours, 0.026-2000 nM, western blot. How it is done:
To determine effects of BTK CTMs on TEC levels in cells, K562 cells were treated for four hours with CTMs at concentrations between 0.026-2000 nM. TEC levels in cell lysate was assessed by western blot.
For orientation: In western blotting, separated proteins are transferred to a membrane and probed.

In series [2] the target is T2, BTK (Mus musculus, UniProt P35991).
T2 construct: from tissue; host or cells: mouse blood B cells / splenocytes (CD-1 or BALB/c)
T2 sequence (P35991 whole entry): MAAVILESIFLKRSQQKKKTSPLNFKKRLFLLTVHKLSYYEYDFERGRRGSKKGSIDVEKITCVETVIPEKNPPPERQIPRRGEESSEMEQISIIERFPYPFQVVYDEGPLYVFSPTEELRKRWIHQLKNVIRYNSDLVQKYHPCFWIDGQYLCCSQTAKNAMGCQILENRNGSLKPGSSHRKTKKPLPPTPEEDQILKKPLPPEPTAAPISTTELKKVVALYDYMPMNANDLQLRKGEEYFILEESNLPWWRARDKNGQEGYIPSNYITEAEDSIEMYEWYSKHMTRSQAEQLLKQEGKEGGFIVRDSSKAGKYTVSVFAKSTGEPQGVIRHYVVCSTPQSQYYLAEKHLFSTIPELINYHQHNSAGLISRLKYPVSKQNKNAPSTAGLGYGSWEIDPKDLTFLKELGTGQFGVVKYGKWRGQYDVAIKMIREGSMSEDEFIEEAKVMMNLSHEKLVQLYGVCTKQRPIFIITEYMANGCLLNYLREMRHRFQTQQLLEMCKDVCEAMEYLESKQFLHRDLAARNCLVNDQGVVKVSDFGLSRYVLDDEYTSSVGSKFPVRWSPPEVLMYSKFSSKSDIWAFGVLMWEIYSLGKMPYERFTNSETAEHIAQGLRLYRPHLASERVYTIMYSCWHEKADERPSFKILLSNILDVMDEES
The series is described as follows: In vivo degradation of BTK in mouse PD experiments with oral dosing. In a few lines: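 BTK in blood or splenocytes read by flow cytometry (or HTRF), degradation taken as B-cell minus T-cell BTK MFI versus vehicle. Mice (CD-1 or BALB/c) received compound orally, initially 90 mg/kg for 6 h, then lower doses and longer time points.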

Series [3] concerns Rec-1 cells. The series is described as follows: Cell viability assay (CellTiter-Glo), Rec-1 cells. The series is classed as cell-based. The settings on record: for EC50: Homo sapiens, Rec1, treatment time 72 h; for EMAX (% viable cells): treatment time 72 h. An excerpt:
This example evaluates effects of CTM-mediated degradation on cell viability. […] Mino and Rec-1 are models of Mantle Cell Lymphoma, which is sensitive to IMiDs.

Series [4] in a line: Compound plasma exposure in cyno DRF study. The series is classed as in vivo. To be noted: cynomolgus monkey, po. The procedure: This example evaluates compound plasma concentration which results in in vivo BTK and/or Aiolos degradation in cyno. The data in the table below is from a study in which animals were dosed daily with the designated oral dose. Analysis for compound concentration in plasma was performed twenty-four hours following the previous dose.

The subject of series [5] is BTK. Description: PD data from cyno (BTK degradation). The series is classed as in vivo. To be noted: blood. The text has this:
In this example, compounds were profiled for activity in non-mouse species.

Series [6] concerns primary human T cells. Description: T cell activation assay, CD25 and CD69 staining (flow cytometry). The series is classed as cell-based. To be noted: for CD25 Staining Anti-CD3/Anti-CD28 Stimulation / CD69 Staining Anti-CD3/Anti-CD28 Stimulation: fold-change of response relative to baseline. A digest of the protocol:
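Primary human T cells stimulated via TCR with anti-CD3/anti-CD28 in the presence of test compound. IL-2 secretion measured by ELISA; surface CD25 and CD69 by flow cytometry. Values are fold-change versus anti-CD3/anti-CD28 stimulation without compound.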

The mark [7] stands for this setting: oral dose 30 mg/kg, 24 h, splenocytes, HTRF.
The mark [8] stands for this setting: 10 mg/kg, 10 mg/kg PO, 1 day of dosing.
Where [9] appears, read: 10 mg/kg, 10 mg/kg PO, 14 days of dosing.
Setting [10] is: 30 mg/kg, 30 mg/kg PO, 1 day of dosing.
Where [11] appears, read: 30 mg/kg, 30 mg/kg PO, 14 days of dosing.
Setting [12] is: 100 mg/kg, 100 mg/kg PO, 1 day of dosing.
The mark [13] stands for this setting: 100 mg/kg, 100 mg/kg PO, 14 days of dosing.
[14] abbreviates: oral dose 30 mg/kg, 24 h, blood, flow cytometry.

The structures appear in SMILES notation. “And” between values parts separate entries of the source, which are not always exact repeats. Equal entries are not always repeated.

Regarding `CN1CCN([C@@H]2CCCN(c3cnc(C(N)=O)c(Nc4ccc(C5CCN(CC6CCN(c7ccc8c(=O)n(C9CCC(=O)NC9=O)ccc8c7)CC6)CC5)cc4)n3)C2)C1=O` (stereo partly shown) [Compound 72], in series [1], the “degradation of BTK compared with TEC” value is “more potent degradation of BTK than TEC” and the “effects on TEC kinase levels” value was “mild to moderate effects”. The “% BTK Remaining” value in series [2] (setting [7]) is given as 20%.

One may read the EC50 as the concentration that produces a half-maximal response. A higher EC50 goes with a less potent agent. The Cmax is the maximum level reached in the sampled fluid or tissue. As usually defined, the AUC is the area under the concentration-time curve, a measure of exposure. Low readings indicate low exposure, high ones high exposure. `CN1CCN([C@H]2CCCN(c3cnc(C(N)=O)c(Nc4ccc(C5CCN(CC6CCN(c7ccc(C(=O)NC8CCC(=O)NC8=O)nc7)CC6)CC5)cc4)n3)C2)C1=O` (stereo partly shown) [Compound 130] returned an EC50 in series [3] of 155 nM. For the same compound, the “EMAX (% viable cells)” value in series [3] is reported as 63%. Moreover, the “degradation of BTK compared with TEC” value in series [1] was “more potent degradation of BTK than TEC”. The “effects on TEC kinase levels” value in series [1] was “mild to moderate effects”. Also, the Cmax was found to be 20 nM in series [4] (setting [8]); 28 nM in series [4] (setting [9]); 55 nM in series [4] (setting [10]); 54 nM in series [4] (setting [11]); 177 nM in series [4] (setting [13]). The area under the curve (AUC) is 0.387 µM·h in series [4] (setting [9]), 0.844 µM·h in series [4] (setting [11]) and 1.4 µM·h in series [4] (setting [12]). Also, the “% BTK Remaining” value in series [5] (1 mg/kg IV, 2 h) was 8%; in series [5] (1 mg/kg IV, 4 h) it was 6%; in series [5] (1 mg/kg IV, 8 h), 5%; in series [5] (1 mg/kg IV, 24 h), 13%; in series [5] (10 mg/kg PO, 2 h), 4%; in series [5] (10 mg/kg PO, 4 h) it was less than 1%. For the same compound, the “% BTK Remaining” value in series [5] (10 mg/kg PO, 8 h) was less than 3%; in series [5] (10 mg/kg PO, 24 h), less than 1%; in series [5] (30 mg/kg PO, 2 h) it was 6%; in series [5] (30 mg/kg PO, 4 h) it was less than 1%; in series [5] (30 mg/kg PO, 8 h), less than 1%; in series [5] (30 mg/kg PO, 24 h), 1%. For the same compound, the “% BTK Remaining” value in series [2] (setting [14]) is listed as 5%. Further, the “CD25 Staining Anti-CD3/Anti-CD28 Stimulation” value worked out at 1.02 in series [6] (1.4 nM), 0.98 in series [6] (37 nM) and 0.55 in series [6] (333 nM). The “CD69 Staining Anti-CD3/Anti-CD28 Stimulation” value in series [6] (1.4 nM) is listed as 1.00; in series [6] (37 nM) it was 0.96; in series [6] (333 nM) it was 0.55.

Take `CN1CCN([C@@H]2CCCN(c3cnc(C(N)=O)c(Nc4ccc(C5CCN(C[C@H]6CCN(c7ccc8c(c7)C(=O)N(C7CCC(=O)NC7=O)C8=O)C6)CC5)cc4)n3)C2)C1=O` (stereo partly shown) [Compound 44]: it took 0.82 nM to reach a half-maximal effect in series [3] (EC50). The “EMAX (% viable cells)” value in series [3] came to 37%. For the same compound, the “degradation of BTK compared with TEC” value in series [1] is given as “more potent degradation of BTK than TEC”. Further, the “effects on TEC kinase levels” value in series [1] is reported as “mild to moderate effects”. Further, the Cmax in series [4] (setting [8]) came to 10.6 nM; in series [4] (setting [9]), 34 nM; in series [4] (setting [10]), 18 nM; in series [4] (setting [11]), 55.5 nM; in series [4] (setting [13]), 94.2 nM. The AUC in series [4] (setting [9]) was found to be 0.467 µM·h; in series [4] (setting [11]), 0.794 µM·h; in series [4] (setting [12]) it was 0.294 µM·h. In addition, the “% BTK Remaining” value in series [5] (1 mg/kg IV, 2 h) was 6%; in series [5] (1 mg/kg IV, 4 h) it was 6%; in series [5] (1 mg/kg IV, 8 h), 7%; in series [5] (1 mg/kg IV, 24 h), 9%; in series [5] (1 mg/kg PO, 2 h), 85%; in series [5] (1 mg/kg PO, 4 h) it was 65%. Also, the “% BTK Remaining” value in series [5] (1 mg/kg PO, 8 h) is 52%; in series [5] (1 mg/kg PO, 24 h) it was 40%; in series [5] (10 mg/kg PO, 2 h, 10 mg/kg) it was 59% and 82%; in series [5] (10 mg/kg PO, 4 h, 10 mg/kg), 35% and 42%; in series [5] (10 mg/kg PO, 8 h, 10 mg/kg), 22% and 27%; in series [5] (10 mg/kg PO, 24 h, 10 mg/kg), 15% and 29%. Also, the “% BTK Remaining” value in series [5] (30 mg/kg PO, 2 h) is recorded as 83%; in series [5] (30 mg/kg PO, 4 h), 47%; in series [5] (30 mg/kg PO, 8 h), 22%; in series [5] (30 mg/kg PO, 24 h), 17%; in series [5] (100 mg/kg PO, 2 h) it was 48%; in series [5] (100 mg/kg PO, 4 h), 27%. For the same compound, the “% BTK Remaining” value came to 12% in series [5] (100 mg/kg PO, 8 h); 8% in series [5] (100 mg/kg PO, 24 h); 58% in series [2] (dose 1(IV) mg/kg, 24 h, splenocytes, HTRF); 58% in series [2] (oral dose 1 mg/kg, 6 h, splenocytes, HTRF); 32% in series [2] (oral dose 3 mg/kg, 6 h, splenocytes, HTRF); 11% in series [2] (oral dose 10 mg/kg, 6 h, splenocytes, HTRF). In addition, the “% BTK Remaining” value in series [2] (oral dose 10 mg/kg, 24 h, splenocytes, HTRF) came to 34%; in series [2] (oral dose 30 mg/kg, 6 h, splenocytes, HTRF), 4%; in series [2] (setting [7]), 23%; in series [2] (oral dose 90 mg/kg, 6 h, splenocytes, HTRF), 4%. Further, the “CD25 Staining Anti-CD3/Anti-CD28 Stimulation” value in series [6] (1.4 nM) is recorded as 1.25; in series [6] (37 nM), 0.86; in series [6] (333 nM), 0.52. Moreover, the “CD69 Staining Anti-CD3/Anti-CD28 Stimulation” value in series [6] (1.4 nM) turned out to be 1.21; in series [6] (37 nM) it was 0.85; in series [6] (333 nM), 0.60. Moreover, the “expression of CD25 and CD69 compared to baseline (anti-CD3/anti-CD28 stimulation alone)” value in series [6] (primary human T cells) is “unchanged or decreased levels”.

On to `CN1CCN([C@@H]2CCCN(c3cnc(C(N)=O)c(Nc4ccc(C5CCN(CC6CCN(c7ccc(-c8nn(C9CCC(=O)NC9=O)c(=O)n8C)cc7)CC6)CC5)cc4)n3)C2)C1=O` (stereo partly shown) [Compound 121], for which the “% BTK Remaining” value in series [2] (oral dose 0.3 mg/kg, 24 h, blood, flow cytometry) was found to be 102%; in series [2] (oral dose 3 mg/kg, 24 h, blood, flow cytometry), 68%; in series [2] (setting [14]), 28%; in series [2] (setting [7]), 33%.

The values are drawn from patent US12600732B2, “Bifunctional compounds for degrading BTK via ubiquitin proteosome pathway” (NURIX THERAPEUTICS, INC., priority 2019, dated 2026).
